Converted amounts (≈) assume the structure as drawn.
Tests used:
[1] = system: A. baumannii ATCC 17978; experiment: microbe, parasite or virus in culture; type: cell-based; conditions: Acinetobacter baumannii, ATCC17978, read-out: MIC, A. baumannii ATCC 17978
[2] = system: A. baumannii ATCC 19606; experiment: microbe, parasite or virus in culture; type: cell-based; conditions: Acinetobacter baumannii, ATCC19606, read-out: MIC, A. baumannii ATCC 19606
[3] = system: P. aeruginosa CDC-0054; experiment: microbe, parasite or virus in culture; type: cell-based; conditions: Pseudomonas aeruginosa, CDC0054, read-out: Minimum inhibitory concentration, P. aeruginosa CDC-0054
[4] = system: P. aeruginosa CDC-0090; experiment: microbe, parasite or virus in culture; type: cell-based; conditions: Pseudomonas aeruginosa, CDC0090, read-out: Minimum inhibitory concentration, P. aeruginosa CDC-0090
[5] = system: A. baumannii CDC-0036; experiment: microbe, parasite or virus in culture; type: cell-based; conditions: Acinetobacter baumannii, CDC0036, read-out: MIC, A. baumannii CDC-0036
[6] = system: A. baumannii CDC-0083; experiment: microbe, parasite or virus in culture; type: cell-based; conditions: Acinetobacter baumannii, CDC0083, read-out: MIC, A. baumannii CDC-0083
[7] = system: B. humptydooensis ATCC BAA-2767; experiment: microbe, parasite or virus in culture; type: cell-based; conditions: Burkholderia humptydooensis, ATCCBAA2767, read-out: Minimum inhibitory concentration (MIC), B. humptydooensis ATCC BAA-2767
[8] = target: T1, A. baumannii PBP1a (Acinetobacter baumannii, UniProt A0ABX6CK30); experiment: Bocillin-FL competition binding via gel filtration, A. baumannii PBP1a; conditions: competition binding assay using Bocillin-FL via gel filtration; read-out: A. baumannii PBP1a Potency
T1 sequence (A0ABX6CK30 1-851): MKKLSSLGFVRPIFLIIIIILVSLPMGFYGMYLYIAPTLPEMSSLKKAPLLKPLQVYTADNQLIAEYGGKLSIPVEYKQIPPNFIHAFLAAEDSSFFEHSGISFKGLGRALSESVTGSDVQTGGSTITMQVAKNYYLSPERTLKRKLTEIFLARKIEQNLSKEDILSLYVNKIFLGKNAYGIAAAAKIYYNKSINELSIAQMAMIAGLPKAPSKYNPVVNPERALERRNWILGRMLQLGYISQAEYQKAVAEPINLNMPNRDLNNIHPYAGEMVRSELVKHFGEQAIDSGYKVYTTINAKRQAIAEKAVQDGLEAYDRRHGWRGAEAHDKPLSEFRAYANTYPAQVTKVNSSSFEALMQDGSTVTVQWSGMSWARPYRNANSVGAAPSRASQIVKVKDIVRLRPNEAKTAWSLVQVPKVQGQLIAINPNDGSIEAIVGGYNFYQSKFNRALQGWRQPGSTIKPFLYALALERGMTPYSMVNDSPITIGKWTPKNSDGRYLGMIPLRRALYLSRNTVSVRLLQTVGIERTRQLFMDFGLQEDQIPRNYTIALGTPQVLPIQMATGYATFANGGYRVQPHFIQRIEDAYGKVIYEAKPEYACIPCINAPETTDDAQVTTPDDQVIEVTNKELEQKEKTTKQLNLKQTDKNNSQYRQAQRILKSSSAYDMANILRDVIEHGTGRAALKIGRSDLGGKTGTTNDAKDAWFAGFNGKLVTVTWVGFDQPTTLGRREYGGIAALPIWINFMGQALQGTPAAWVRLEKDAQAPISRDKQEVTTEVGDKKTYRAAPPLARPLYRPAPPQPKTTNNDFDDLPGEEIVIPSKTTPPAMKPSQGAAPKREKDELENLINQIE
Summary of the method: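 Competitive equilibrium binding; reporter Bocillin-FL. PBP + inhibitor (titration) pre-incubated → Bocillin-FL, 15 min → gel filtration → fluorescence. EC50 from Hill fit of fraction bound vs [inhibitor].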

**Q.** Which MIC [1] does the source give for `CS(=O)(=O)N1CCN(C(=O)N[C@@H](C(=O)N[C@H]2Cc3ccc(F)c(C(=O)O)c3OB2O)c2ccc(P(=O)(O)O)c(F)c2)C1=O` (single isomer, unassigned) [Example 19] here?
**A.** 8 to 16 µg/mL (≈ 12.4 to 24.8 µM)

**Q.** And the MIC [2]?
**A.** 32 to 64 µg/mL (≈ 49.5 to 99 µM)

**Q.** And the MIC [3]?
**A.** > 128 µg/mL

**Q.** And the MIC [4]?
**A.** > 128 µg/mL

**Q.** And the MIC [5]?
**A.** > 128 µg/mL

**Q.** And the MIC [6]?
**A.** > 128 µg/mL

**Q.** What about the MIC [7] of the same compound?
**A.** 32 to 64 µg/mL (≈ 49.5 to 99 µM)

**Q.** How did the EC50 [8] turn out when `O=C(O)c1c(F)ccc2c1OB(O)[C@@H](NC(=O)C(NC(=O)N1CCN(Cc3ccc(O)c(O)c3Cl)C(=O)C1=O)c1ccc(P(=O)(O)O)cc1)C2` (stereo partly drawn) [Example 8, (3R)-3-(2-(4-(2-chloro-3,4-dihydroxybenzyl)-2,3-dioxopiperazine-1-carboxamido)-2-(4-phosphonophenyl)acetamido)-7-fluoro-2-hydroxy-3,4-dihydro-2H-benzo[e][1,2]oxaborinine-8-carboxylic acid] was run?
**A.** 10 to 50 µM

**Q.** What about the MIC [1] of the same compound?
**A.** < 1 µg/mL

**Q.** And the MIC [2]?
**A.** < 1 µg/mL

**Q.** And the MIC [3]?
**A.** < 1 µg/mL

**Q.** What about the MIC [4] of the same compound?
**A.** 2 to 4 µg/mL (≈ 2.72 to 5.44 µM)

**Q.** What about the MIC [5] of the same compound?
**A.** 2 to 4 µg/mL (≈ 2.72 to 5.44 µM)

**Q.** What about the MIC [6] of the same compound?
**A.** < 1 µg/mL

**Q.** What about the MIC [7] of the same compound?
**A.** < 1 µg/mL

**Q.** `O=C(O)c1c(F)ccc2c1OB(O)[C@@H](NC(=O)C(NC(=O)N1CCN(Cc3ccc(O)c(O)c3Cl)C(=O)C1=O)c1ccc(P(=O)(O)O)c(F)c1)C2` (stereo partly drawn) [Example 23, (3R)-3-(2-(4-(2-chloro-3,4-dihydroxybenzyl)-2,3-dioxopiperazine-1-carboxamido)-2-(3-fluoro-4-phosphonophenyl)acetamido)-7-fluoro-2-hydroxy-3,4-dihydro-2H-benzo[e][1,2]oxaborinine-8-carboxylic acid] was tested. Which EC50 [8] did it give?
**A.** 10 to 50 µM

**Q.** What about the MIC [1] of the same compound?
**A.** < 1 µg/mL

**Q.** And the MIC [2]?
**A.** < 1 µg/mL

**Q.** And the MIC [3]?
**A.** < 1 µg/mL

**Q.** And the MIC [4]?
**A.** 8 to 16 µg/mL (≈ 10.6 to 21.3 µM)

**Q.** And the MIC [5]?
**A.** < 1 µg/mL

**Q.** And the MIC [6]?
**A.** < 1 µg/mL

**Q.** And the MIC [7]?
**A.** < 1 µg/mL

**Q.** How did the EC50 [8] turn out when `O=C(O)c1cccc2c1OB(O)[C@@H](NC(=O)C(NC(=O)N1CCN(Cc3ccc(O)c(O)c3Cl)C(=O)C1=O)c1ccc(P(=O)(O)O)cc1)C2` (stereo partly drawn) [Example 24, (3R)-3-(2-(4-(2-chloro-3,4-dihydroxybenzyl)-2,3-dioxopiperazine-1-carboxamido)-2-(4-phosphonophenyl)acetamido)-2-hydroxy-3,4-dihydro-2H-benzo[e][1,2]oxaborinine-8-carboxylic acid] was run?
**A.** 10 to 50 µM

**Q.** And the MIC [1]?
**A.** < 1 µg/mL

**Q.** And the MIC [2]?
**A.** < 1 µg/mL

**Q.** And the MIC [3]?
**A.** < 1 µg/mL

**Q.** And the MIC [4]?
**A.** 8 to 16 µg/mL (≈ 11.2 to 22.3 µM)

**Q.** What about the MIC [5] of the same compound?
**A.** < 1 µg/mL

**Q.** What about the MIC [6] of the same compound?
**A.** < 1 µg/mL

**Q.** And the MIC [7]?
**A.** < 1 µg/mL

**Q.** With `O=C(O)c1c(F)ccc2c1OB(O)[C@@H](NC(=O)C(NC(=O)N1CCN(Cc3cc(F)c(O)c(O)c3Cl)C(=O)C1=O)c1ccc(P(=O)(O)O)cc1)C2` (stereo partly drawn) [Example 45, (3R)-3-(2-(4-(2-chloro-5-fluoro-3,4-dihydroxybenzyl)-2,3-dioxopiperazine-1-carboxamido)-2-(4-phosphonophenyl)acetamido)-7-fluoro-2-hydroxy-3,4-dihydro-2H-benzo[e][1,2]oxaborinine-8-carboxylic acid] as the compound, how does the EC50 [8] read?
**A.** 10 to 50 µM

**Q.** What about the MIC [1] of the same compound?
**A.** < 1 µg/mL

**Q.** What about the MIC [2] of the same compound?
**A.** < 1 µg/mL

**Q.** And the MIC [3]?
**A.** < 1 µg/mL

**Q.** And the MIC [4]?
**A.** < 1 µg/mL

**Q.** What about the MIC [5] of the same compound?
**A.** < 1 µg/mL

**Q.** What about the MIC [6] of the same compound?
**A.** < 1 µg/mL

**Q.** And the MIC [7]?
**A.** < 1 µg/mL

**Q.** For `O=C(O)c1c(F)ccc2c1OB(O)[C@@H](NC(=O)C(NC(=O)N1CCN(Cc3ccc(O)c(O)c3Cl)C1=O)c1ccc(P(=O)(O)O)cc1)C2` (stereo partly drawn) [Example 46, (3R)-3-(2-(3-(2-chloro-3,4-dihydroxybenzyl)-2-oxoimidazolidine-1-carboxamido)-2-(4-phosphonophenyl)acetamido)-7-fluoro-2-hydroxy-3,4-dihydro-2H-benzo[e][1,2]oxaborinine-8-carboxylic acid], which EC50 [8] is on record?
**A.** < 10 µM

**Q.** What about the MIC [3] of the same compound?
**A.** 2 to 4 µg/mL (≈ 2.83 to 5.66 µM)

**Q.** And the MIC [4]?
**A.** 2 to 4 µg/mL (≈ 2.83 to 5.66 µM)

**Q.** And the MIC [7]?
**A.** < 1 µg/mL

**Q.** Which EC50 [8] does the source give for `O=C(N[C@@H](C(=O)N[C@H]1Cc2cccc(C(=O)O)c2OB1O)c1ccc(P(=O)(O)O)cc1)c1ccc(O)c(O)c1Cl` [Example 49, (R)-3-((R)-2-(2-chloro-3,4-dihydroxybenzamido)-2-(4-phosphonophenyl)acetamido)-2-hydroxy-3,4-dihydro-2H-benzo[e][1,2]oxaborinine-8-carboxylic acid] here?
**A.** 10 to 50 µM

**Q.** What about the MIC [1] of the same compound?
**A.** < 1 µg/mL

**Q.** And the MIC [2]?
**A.** < 1 µg/mL

**Q.** And the MIC [3]?
**A.** < 1 µg/mL

**Q.** What about the MIC [4] of the same compound?
**A.** 2 to 4 µg/mL (≈ 3.39 to 6.77 µM)

**Q.** What about the MIC [5] of the same compound?
**A.** > 128 µg/mL

**Q.** And the MIC [6]?
**A.** > 128 µg/mL

**Q.** What about the MIC [7] of the same compound?
**A.** < 1 µg/mL

**Q.** `O=C(NCCN1CCN(C(=O)NC(C(=O)N[C@H]2Cc3ccc(F)c(C(=O)O)c3OB2O)c2ccc(P(=O)(O)O)cc2)C(=O)C1=O)c1ccc(O)c(O)c1Cl` (stereo partly drawn) [Example 120, (3R)-3-(2-(4-(2-(2-chloro-3,4-dihydroxybenzamido)ethyl)-2,3-dioxopiperazine-1-carboxamido)-2-(4-phosphonophenyl)acetamido)-7-fluoro-2-hydroxy-3,4-dihydro-2H-benzo[e][1,2]oxaborinine-8-carboxylic acid] was tested. Which EC50 [8] did it give?
**A.** 10 to 50 µM

**Q.** And the MIC [1]?
**A.** < 1 µg/mL

**Q.** And the MIC [2]?
**A.** < 1 µg/mL

**Q.** And the MIC [3]?
**A.** < 1 µg/mL

**Q.** What about the MIC [4] of the same compound?
**A.** < 1 µg/mL

**Q.** What about the MIC [5] of the same compound?
**A.** 8 to 16 µg/mL (≈ 10.1 to 20.2 µM)

**Q.** And the MIC [6]?
**A.** < 1 µg/mL

**Q.** And the MIC [7]?
**A.** < 1 µg/mL

From US20240270762A1, “PENICILLIN-BINDING PROTEIN INHIBITORS” (priority 2021, published 2024)
